Results reported in US4225619A, “Substituted fluoracylresorcinols” (Boehringer Ingelheim GmBH, priority 1976, dated 1980).
Converted amounts (≈) assume the structure as drawn.

Tests used:
Type in all cases: cell-based
[1] = tested on: Staphylococcus aureus SG 511; experiment: Agar diffusion test (hole-test); details: SG511, 18-20 hours at 37° C., read-out: MIC, A.D.T., Staphylococcus aureus SG 511
Procedure: (§1) The inhibitory effect on bacteria and fungi was examined by the serial dilution test and the agar diffusion test (hole-test). As bacteria were used: Staphylococcus aureus SG 511, Streptococcus Aronson, Streptococcus pyogenes At CC 86 68; as fungi: Candida albicans AT CC 10231, Trichophyton mentagrophytes AT CC 9129 and Aspergillus niger.
1. Meat extract agar: for St. aureus SG 511
(§2) The age of the primary cultures is 24 hours for bacteria and 14 days for fungi. The standardization of the suspension of microorganisms is effected using a photometer according to Eppendorf (test tube .phi.14 mm, filter 546 nm) and a suspension for comparison consisting of barium sulfate, this suspension being created by addition of 3.0 ml of 1% barium chloride solution to 97 ml of 1% sulfuric acid. After the standardization St. aureus SG 511 was diluted 1:1000 and Sc. pyogenes and Aronson 1:100 by means of sodium chloride solution. The fungi were used in an undiluted state.
(§3) 40 mgm of the substance were put into a 10 ml measuring flask and filled up to the mark with the solvent (corresponds to a dilution of 1:250=4000 μg/ml).
(§4) The dilutions to the concentrations under test were effected with distilled water or the respective solvent.
(§5) 19 ml of the nutrient medium were filled into sterile Petri dishes of a diameter of 8 cm and dried. Subsequently the agar plates were charged with 4 ml of seed agar. 100 ml of seed agar contain 1.25 ml of the suspension of microorganisms, an agar plate thus containing 0.05 ml of the suspension of microorganisms. After solidification of the agar, 5 holes of a diameter of 5 mm were punched into the plates and filled with 0.05 ml of the correspondingly concentrated substance solution.
(§6) Control tests merely using the solvent are to be carried out simultaneously.
(§7) Bacteria were incubated at 37° C. for 18-20 hours and fungi at 27° C. for 7 days.
(§8) The diameter of the area of inhibition in mm was measured after having deducted the diameter of the hole.

[2] = tested on: Staphylococcus aureus SG 511; experiment: Serial dilution test; details: Staphylococcus aureus, SG511, 18-20 hours at 37° C., read-out: MIC, S.D.T., Staphylococcus aureus SG 511
Procedure: as §1
1. Meat extract broth: for St. aureus SG 511
The age of the primary cultures is 24 hours for bacteria and 14 days for fungi. The standardization of the suspension of microorganisms is effected using a photometer according to Eppendorf (test tube .phi.14 mm, filter 546 nm) and a suspension for comparison consisting of barium sulfate, this suspension being created by adition of 3.0 ml of 1% barium chloride solution to 97 ml of 1% sulfuric acid. After the standardization the bacteria were further diluted to a concentration of 1:1000 by means of sodium chloride solution, the fungi were used in an undiluted state.
40 mgm of the substance were put into a 10 ml measuring flask and filled up to the mark with the solvent (corresponds to a dilution of 1:250=4000 μg/ml). The further dilution series was standardized with distilled water or the respective solvent and the following substance concentrations were prepared: 1000; 250; 62.5 μg/ml.
The tubes were filled with 4.9 ml of the corresponding liquid nutrient medium. Then 0.1 ml of the substance dilution prepared above was added to each tube, so that the mentioned final concentrations were present. Finally each tube was inoculated with 0.1 ml of the standardized suspension of microorganisms. Control tests merely using the solvent are to be carried out simultaneously.
as §7
The measurement is carried out macroscopically defining the minimal inhibitory concentration (the lowest still microbiostatically effective concentration).

Streptococcus Aronson = experiment: Agar diffusion test (hole-test); details: 18-20 hours at 37° C., read-out: MIC, A.D.T., Streptococcus Aronson
Procedure: as §1
(§9) 2. Glucose agar: for Sc. Aronson and St. pyogenes Recipe see meat extract agar. After sterilization 1 weight percent of glucose is added as a sterile 50% solution.
as §2, §3, §4, §5, §6, §7, §8

Aspergillus niger = experiment: Agar diffusion test (hole-test); details: 168 h, 27° C. for 7 days, read-out: MIC, A.D.T., Aspergillus niger
Procedure: as §1
(§10) 3. Sabouraud agar: for C. alb., Trich. ment., A. niger
as §2, §3, §4, §5, §6, §7, §8

[3] = tested on: Candida albicans AT CC 10231; experiment: Agar diffusion test (hole-test); details: ATCC10231, 168 h, 27° C. for 7 days, read-out: MIC, A.D.T., Candida albicans
Procedure: as §1, §10, §2, §3, §4, §5, §6, §7, §8

[4] = tested on: Trichophyton mentagrophytes AT CC 9129; experiment: Agar diffusion test (hole-test); details: ATCC9129, 168 h, 27° C. for 7 days, read-out: MIC, A.D.T., Trichophyton mentagrophytes
Procedure: as §1, §10, §2, §3, §4, §5, §6, §7, §8

Pityrosporum ovale = experiment: Serial dilution test for Pityrosporum ovale; details: Malassezia furfur, 168 h, 27° C. for 7 days, read-out: MIC, S.D.T., Pityrosporum ovale
Procedure: Serial dilution test for Corynebacterium acnes and Pityrosporum ovale Nutrient medium
For Corynebacterium acnes: thioglycolate-broth for Pityrosporum ovale: Littmann's broth, 5 ml per tube.
Suspension of microorganisms in 0.9% sodium chloride solution, standardized using a photometer according to Eppendorf by means of a suspension for comparison consisting of barium sulfate, for Corynebacterium acnes in a dilution of 1:100, for Pityrosporum ovale in an undiluted state. 0.1 ml of the suspensions was used per test tube. Dimethyl sulfoxide served as a solvent for the substances.
The suspension with Corynebacteria acnes was incubated at 37° C. for 48 hours, the suspension of Pityrosporum ovale at 27° C. for 7 days. The reading was effected by macroscopic evaluation of the growth of microorganisms and registration of the minimal inhibitory concentration.

HeLa-cell culture = experiment: Inhibition of HeLa cell cultures; details: Homo sapiens, 72 h, 37° C. for 3 days, 5% carbon dioxide; for IC50: read-out: ED50, HeLa cell culture; for minimal effective concentration: read-out: Minimal inhibitory concentration, HeLa cell culture
Procedure: Measurement of the inhibition of cell cultures
HeLa-cell culture was treated with trypsin and adjusted to a cell number of 150,000 cells/ml of fresh medium. The substance was always dissolved in the same quantity of dimethyl sulfoxide and then further diluted with growth medium. 0.1 ml of the substance-dilutions were added to each well of microtiter plates and then 0.2 ml of cell suspension were added (4 wells per dilution). Several growth controls containing 0.1 ml of growth medium instead of 0.1 ml of substance dilution were put up. After careful mixing, the cultures were incubated at 37° C. for 3 days in a 5% carbon dioxide atmosphere. The reading was effected in comparison with these controls. The results were given as the percentage of the deficiency and degeneration compared to the growth control. […] The statements are referred to μg of substance per ml of total medium.

[5] = tested on: Streptococcus pyogenes At CC 86 68; experiment: Agar diffusion test (hole-test); details: ATCC8668, 18-20 hours at 37° C., read-out: MIC, A.D.T., Streptococcus pyogenes
Procedure: as §1, §9, §2, §3, §4, §5, §6, §7, §8

SMILES	MIC [1] [µg/mL]	MIC [2] [µg/mL]	MIC (Streptococcus Aronson) [µg/mL]	MIC (Aspergillus niger) [µg/mL]	MIC [3] [µg/mL]	MIC [4] [µg/mL]	MIC (Pityrosporum ovale) [µg/mL]	IC50 (HeLa-cell culture) [µg/mL]	minimal effective concentration (HeLa-cell culture) [µg/mL]	MIC [5] [µg/mL]
O=C(c1ccc(O)cc1O)C(F)(F)F [A, 2,4-Dihydroxy-trifluoroacetophenone, reference compound]	1000 (≈ 4850 µM)	80 (≈ 388 µM)	1000 (≈ 4850 µM)	250 (≈ 1210 µM)	1000 (≈ 4850 µM)	250 (≈ 1210 µM)	80 (≈ 388 µM)	12.5 (≈ 60.6 µM)	3.13	–
CCc1cc(C(=O)C(F)(F)F)c(O)cc1O [B, 5-Ethyl-2,4-dihydroxy-trifluoroacetophenone, reference compound]	250 (≈ 1070 µM)	20 (≈ 85.4 µM)	250 (≈ 1070 µM)	250 (≈ 1070 µM)	1000 (≈ 4270 µM)	250 (≈ 1070 µM)	80 (≈ 342 µM)	9.75 (≈ 41.6 µM)	6.25	250 (≈ 1070 µM)
CCc1c(O)ccc(C(=O)C(F)(F)F)c1O [C, 3-Ethyl-2,4-dihydroxy-trifluoroacetophenone, reference compound]	62.5 (≈ 267 µM)	5 (≈ 21.4 µM)	62.5 (≈ 267 µM)	1000 (≈ 4270 µM)	1000 (≈ 4270 µM)	62.5 (≈ 267 µM)	> 80	–	–	62.5 (≈ 267 µM)
COc1ccc(C(=O)C(F)(F)F)c(OC)c1 [D, 2,4-Dimethoxy-trifluoroacetophenone, reference compound]	> 4000	> 80	> 4000	> 4000	> 4000	> 4000	> 80	90.1 (≈ 385 µM)	25	> 4000
CC(C)Cc1c(O)ccc(C(=O)C(F)(F)F)c1O [F, 2,4-Dihydroxy-3-iso-butyl-trifluoroacetophenone]	62.5 (≈ 238 µM)	0.08 (≈ 0.305 µM)	≤ 15.6	250 (≈ 953 µM)	250 (≈ 953 µM)	≤ 15.6	80 (≈ 305 µM)	7.7 (≈ 29.4 µM)	0.78	≤ 15.6
CC1CCC(c2c(O)ccc(C(=O)C(F)(F)F)c2O)CC1 (stereo not drawn) [H, 2,4-Dihydroxy-3-(4'-methyl)-cyclohexyl-trifluoro-acetophenone]	≤ 15.6	0.31 (≈ 1.03 µM)	≤ 15.6	62.5 (≈ 207 µM)	1000 (≈ 3310 µM)	≤ 15.6	> 80	4.2 (≈ 13.9 µM)	≤ 0.78	≤ 15.6
CC(C)c1c(O)ccc(C(=O)C(F)(F)F)c1O [P, 2,4-Dihydroxy-3-isopropyl-trifluoroacetophenone]	62.5 (≈ 252 µM)	1.25 (≈ 5.04 µM)	≤ 15.6	–	–	–	–	3.52 (≈ 14.2 µM)	1.56	62.5 (≈ 252 µM)
